We go through one molecule from patent US20210401863A1, “TREATMENT AND PREVENTION OF NEISSERIA GONORRHOEAE INFECTION USING CMP-ACTIVATED NONULOSONATE ANALOG COMPOUNDS” (NATIONAL RESEARCH COUNCIL OF CANADA, priority 2015, published 2021).

Entries after “also recorded” stand apart in the source; their conditions may differ. Where two headings read alike, the source gives them in different places.

The subject of test [1] is N. gonorrhoeae F62 ΔlgtD. It is filed as cell-based, Neisseria gonorrhoeae. On the procedure: Generally, bacteria (F62 ΔlgtD) grown overnight on chocolate agar plates were suspended in gonococcal liquid media supplemented with IsoVitaleX [29] that contained specified concentrations of the CMP-nonulosonate. Bacteria were then incubated at 37° C. for the period specified in each experiment.
Serum bactericidal assays were performed as follows, similar to methods outlined in [32,33] and in U.S. Pat. No. 9,765,106. Bacteria were harvested from an overnight culture on chocolate agar plates and ˜10^5 CFU of Ng were grown in liquid media containing the concentrations of CMP-NuIO as specified for each experiment. Bacteria were diluted in Morse A and ˜2000 CFU of Ng F62 ΔlgtD were incubated with NHS (concentration specified for each experiment). The final reaction volumes were maintained at 150 μL. Aliquots of 25 μL of reaction mixtures were plated onto chocolate agar in duplicate at the beginning of the assay (t0) and again after incubation at 37° C. for 30 minutes (t30). Survival was calculated as the number of viable colonies at t30 relative to t0.
Addition of a terminal Neu5Ac residue to the LNnT LOS of N. gonorrhoeae that occurs in vivo or following the addition of CMP-Neu5Ac to growth media results in resistance to complement-dependent killing. We next determined the effects of LNnT incorporation of KDN on the ability of N. gonorrhoeae F62 ΔlgtD to resist complement-dependent killing by normal human sera at concentrations of 3.3% or 10%. Bacteria were grown either in media alone, or media supplemented with 20 μg/mL of CMP-Neu5Ac or CMP-KDN. In addition, CMP-NulO competition experiments were also performed with CMP-Neu5Ac, CMP-Leg5Ac7Ac and CMP-KDN at CMP-NulO concentrations of either 20 μg/mL or 2 μg/mL as indicated, where the second CMP-NulO was added 15 minutes after the first (Table 1 below). To note, these CMP-NulO competition experiments are a method to examine the ability of select CMP-NulOs to counter the enhanced serum resistance due to CMP-Neu5Ac addition, providing information on their therapeutic potential (as any potential therapeutic will be required to compete with CMP-Neu5Ac in vivo).

The test system of test [2] is N. gonorrhoeae H041. The experiment in a line: BALB/c mouse vaginal colonization model. In kind it is in vivo. Conditions: 10 μg intravaginally daily; Premarin treated BALB/c mice. On the procedure: FIG. 2: Female BALB/c mice 5-6 weeks of age (Jackson Laboratories) in the diestrus phase of the estrous cycle were started on treatment (that day) with 0.5 mg of Premarin (Pfizer) given subcutaneously on each of three days; −2, 0 and +2 days (before, the day of and after inoculation) to prolong the estrus phase of the cycle and promote susceptibility to N. gonorrhoeae infection. Antibiotics (vancomycin, colistin, neomycin, trimethoprim and streptomycin) that were ineffective against N. gonorrhoeae were also used to reduce competitive microflora. Mice (n=40) were then infected with 10^6 CFU of strain H041. Three groups of mice (n=10/group) were treated with 10 μg intravaginally daily (first dose was administered 30 minutes before the introduction of bacteria) with one of the following CMP-NulOs in normal saline: CMP-Leg5Ac7Ac, CMP-Neu5Ac9Az or CMP-KDN. A fourth group (n=10) was given saline (vehicle control). Vaginal swabs were obtained daily from each animal, serially diluted and plated on chocolate agar containing vancomycin, colistin, neomycin, trimethoprim and streptomycin (VCNTS) to quantify bacterial loads. A. Median time to clearance was estimated using Kaplan-Meier survival curves; the times to clearance were compared between groups using a log-rank test. P<0.0001 for the control versus each of the treatment groups. Time to clearance between each of the treatment groups was similar (P>0.05). B. The mean area under the curve (log10 CFU vs. time) was computed for each mouse to estimate the bacterial burden over time (cumulative infection); the means under the curves were compared between groups using the Kruskal-Wallis nonparametric rank sum test because distributions were skewed or kurtotic. Groups were compared using Dunn's multiple comparison test. ****, P<0.0001; **, P<0.01; *, P<0.05. The differences among the groups that received CMP-NulOs were not significant.
The mouse model experiments and statistical analysis were conducted as described in the art and in U.S. Pat. No. 9,765,106. […]

For the molecule `Nc1ccn([C@@H]2O[C@H](COP(=O)(O)O[C@@]3(C(=O)O)CC(O)[C@@H](O)C([C@H](O)[C@H](O)CO)O3)C(O)C2O)c(=O)n1` (stereo partly drawn) [CMP-KDN, cytidine 5′-monophospho-3-deoxy-D-glycero-D-galacto-nonulosonic acid], the “% survival in 3.3% serum” value is on record as 107% in test [1] (CMP-Neu5Ac (20 μg/mL) first, labelled CMP-NulO (20 μg/mL) added 15 minutes later, 3.3% serum); 110% in test [1] (Table 1, CMP-NulO 20 μg/mL alone, 3.3% serum); 107% in test [1] (labelled CMP-NulO (20 μg/mL) first, CMP-Neu5Ac (2 μg/mL) added 15 minutes later, 3.3% serum); 107% in test [1] (labelled CMP-NulO (20 μg/mL) first, CMP-Neu5Ac (20 μg/mL) added 15 minutes later, 3.3% serum). Moreover, the “% survival in 10% serum” value in test [1] (CMP-Neu5Ac (20 μg/mL) first, labelled CMP-NulO (20 μg/mL) added 15 minutes later, 10% serum) came to 108%; in test [1] (Table 1, CMP-NulO 20 μg/mL alone, 10% serum), 11%; in test [1] (labelled CMP-NulO (20 μg/mL) first, CMP-Neu5Ac (2 μg/mL) added 15 minutes later, 10% serum), 10%; in test [1] (labelled CMP-NulO (20 μg/mL) first, CMP-Neu5Ac (20 μg/mL) added 15 minutes later, 10% serum), 11%. Further, the “serum resistance (in words)” value in test [1] (CMP-NulO alone, 3.3% serum) is on record as “complete serum resistance was observed”. In test [1] (CMP-NulO alone, 10% serum), the “serum sensitivity (in words)” value is “serum sensitivity was observed”. Besides, the “countering of serum resistance mediated by CMP-Neu5Ac (competition, in words)” value in test [1] (CMP-NulO competition, second CMP-NulO 15 minutes after the first, 3.3% and 10% serum) is listed as “could only counter CMP-Neu5Ac induced serum resistance if it was provided before CMP-Neu5Ac”. The “attenuation of N. gonorrhoeae H041 infection” value in test [2] is reported as “some efficacy; also recorded: significantly attenuated; also recorded: just as efficacious in an animal model of colonization”.
